Consider one compound from patent US20080009512A1, “Tetrahydroquinolones and Aza-Analogues Thereof for Use as Dpp-IV Inhibitors in the Treatment of Diabetes” (ASTRAZENECA AB, priority 2004, published 2008).

This assay concerns the target T1, DPP-IV activity from human colonic carcinoma cell extracts (Caco-2) (Homo sapiens, UniProt P27487).
T1 construct: Cell extract is prepared from cells solubilized in 10 mM Tris HCI, 0.15 M NaCI, 0.04 t.i.u.aprotinin, 0.5% nonidet-P40; host or cells: Caco-2, differentiated to induce DPP-IV expression; detergent-solubilized extract
Nature of the assay: caco-2 DPP-IV Assay (CaCo2 extract, fluorescence, H-Gly-Pro-AMC substrate). Type of assay: biochemical. The settings on record: solubilized Caco-2 protein extract; 11-point dose-response curves, 4 parameter logistic function. How it is done:
As indicated above, all of the compounds, and their corresponding pharmaceutically-acceptable salts, are useful in inhibiting DPP-IV. […] The human colonic carcinoma cell line Caco-2 was obtained from the American Type Culture Collection (ATCC HTB 37). Differentiation of the cells to induce DPP-IV expression was accomplished as described by Reisher, et al. (Proc. Natl. Acad. Sci., Vol. 90, pgs. 5757-5761 (1993)). Cell extract is prepared from cells solubilized in 10 mM Tris HCI, 0.15 M NaCI, 0.04 t.i.u.aprotinin, 0.5% nonidet-P40, pH 8.0, which is centrifuged at 35,000 g for 30 min at 4° C. to remove cell debris.
The […] assay is conducted by adding 20 μg solubilized Caco-2 protein or purified porcine kidney DPP-IV, in a final volume of 10 ul in assay buffer (25 mM Tris HCl pH 7.4, 140 mM NaCl, 10 mM KCl, 0.1% Triton-x-100) to microtiter plate wells. […] The endpoint is determined by measuring absorbance at 405 nm in a Labsystems microtiter plate reader.
Activity of CaCo2 extract is also measured employing a modified version of the assay described in Kubota, et al. (Clin. Exp. Immunol., Vol. 89, pgs. 192-197 (1992)). […] After the 10 min. reaction, florescence is measured using a Tecan Ultra fluorimeter (Excitation 360 nm Emission 465 nm). […]

What is called IC50 is the concentration that gives 50% inhibition. A low value points to greater potency.

The structures appear in SMILES notation.

T1 sequence (P27487 whole entry): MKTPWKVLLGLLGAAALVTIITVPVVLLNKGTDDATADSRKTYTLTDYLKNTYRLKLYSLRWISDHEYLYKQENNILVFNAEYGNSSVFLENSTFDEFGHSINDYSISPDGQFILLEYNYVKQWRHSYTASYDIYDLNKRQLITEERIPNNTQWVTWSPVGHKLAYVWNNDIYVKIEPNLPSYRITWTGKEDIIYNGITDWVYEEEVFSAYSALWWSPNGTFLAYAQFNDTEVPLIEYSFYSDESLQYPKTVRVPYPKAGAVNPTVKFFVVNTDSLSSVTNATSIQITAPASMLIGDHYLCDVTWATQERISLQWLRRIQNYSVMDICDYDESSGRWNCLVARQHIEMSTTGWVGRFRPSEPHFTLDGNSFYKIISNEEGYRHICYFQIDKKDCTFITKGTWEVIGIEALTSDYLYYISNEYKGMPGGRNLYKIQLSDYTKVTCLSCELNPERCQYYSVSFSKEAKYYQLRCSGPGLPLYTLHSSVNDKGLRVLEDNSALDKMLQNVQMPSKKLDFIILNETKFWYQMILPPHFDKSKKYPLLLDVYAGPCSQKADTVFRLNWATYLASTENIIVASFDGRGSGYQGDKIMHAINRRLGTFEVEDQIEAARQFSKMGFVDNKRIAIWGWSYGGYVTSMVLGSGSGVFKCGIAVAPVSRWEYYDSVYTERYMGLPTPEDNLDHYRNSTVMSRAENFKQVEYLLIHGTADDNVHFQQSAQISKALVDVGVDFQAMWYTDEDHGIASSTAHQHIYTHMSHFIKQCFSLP

In turn, `N[C@@H](CC(=O)NC1Cc2ccccc2NC1=O)Cc1ccccc1F` (stereo partly drawn) [Example 1, (3R)-3-Amino-4-(2-fluorophenyl)-N-(2-oxo-1,2,3,4-tetrahydroquinolin-3-yl)butanamide] came in with an IC50 of 0.58 µM.
